In US12636291B2, “Compositions and methods relating to use of agonists of ALPHA5-containing GABAA receptors” (Centre for Addiction and Mental Health, priority 2019, dated 2026):

Legend:
[1] = system: Layer II/III pyramidal cells of prefrontal cortex (PFC); test: Golgi staining morphological analysis of PFC pyramidal cells; assay type: in vivo, mouse; settings: for spine density versus branch orders, overall: FIG. 17A; for spine density versus branch orders, basal dendrites: FIG. 17B; for spine density versus branch orders, apical dendrites: FIG. 17C; for spine density at 30 micron intervals from the soma, overall: FIG. 18A; for spine density at 30 micron intervals from the soma, basal dendrites: FIG. 18B; for spine density at 30 micron intervals from the soma, apical dendrites: FIG. 18C
Procedure: Details of the animals, materials, and methods used are provided following the discussion section below. Briefly, all studies discussed below were conducted using three groups of animals designated “Young” (2 months of age at the beginning of the 8-week study, 4 months of age at time of testing; “Old” (22 months of age at beginning of study, 24 months of age at time of testing); and “Treatment” (“Old” mice who received GL-II-73 in the drinking water for 8 weeks prior to evaluation of cognitive ability and pyramidal cell morphology). The last study further included a fourth group of animals, “Treatment+Washout” which were treated the same as the “Treatment” group except that the GL-II-73 was removed for a 1 week “wash-out” period prior to evaluation of pyramidal cell morphology.
Table 1 summarizes the results of a quantitative assessment of the morphological properties of Layer II/III pyramidal cells of prefrontal cortex (PFC) between Young, Old, and Treatment groups. […] Check marks represent countable spines; X's represent uncountable spines. The total number of sampled neurons in the PFC study was 72 cells with a total of 1,888 dendritic segments, 193,698 total dendritic lengths (μm), and 199,529 spine counts, respectively.
Table 2 summarizes the results of a quantitative assessment of the morphological properties of Layer II/III pyramidal cells of prefrontal cortex (PFC) between Young, Old, Old-Treatment, and Old-washout groups. As noted above, mice assigned to the “Young” group were 2 months of age at the beginning of the 8-week study and 4 months of age at time of testing; mice assigned to the “Old” group were 22 months of age at beginning of study, 24 months of age at time of testing; mice assigned to the “Old-Treatment” group were the same age as the “Old” group and received GL-II-73 in their drinking water for 8 weeks prior to evaluation; and mice assigned to the “Old-washout” group were the same age and treatment as the “Old-Treatment” group except that the GL-II-73 was removed for a 1 week “wash-out” period prior to evaluation. Differences in total dendritic lengths, overall spine counts, and overall spine density between groups were determined via ANOVA analysis.
Drug preparation and administration: The compound GL-II-73 was administered in the drinking water for 8 weeks, and made fresh every other day to prevent any deterioration of the compound in the water at room temperature. The solution was prepared at 30 mg/kg for an estimated volume of 8 ml/mouse/day, based on previous calculations. For the pilot study in the 5×FAD mouse model, the compound GL-II-73 was prepared for intra peritoneal injection only, at a dose of 10 mg/kg. Vehicle solution was made of 85% distilled water, 14% propylene glycol and 1% tween-80.
Brain collection and Golgi staining: Twenty-four hours after the completion of the behavioral testing, mice were euthanized using cervical dislocation. Brains were carefully collected from the skull, rinsed with MilliQ water and immersed in the Golgi staining solution provided by Neurodigitech (San Diego, CA). Six hours after the beginning of the incubation, the solution was changed to provide fresh solution. Then brains were left incubating for 14 days at room temperature, in the dark. For better results, vials containing the brains were gently swirled 3 times a week. After the incubation period, the staining solution was discarded and replaced by a storage solution and brains (n=4 per group) were shipped to Neurodigitech for morphological analysis.
Slice preparation: Brains were cut at 40 μm thickness using a cryostat and mounted on glass slides. The slides included serial coronal sections that covered the anterior-to-posterior axis of the brain. The sampling of ROIs included the basal and apical dendrites of pyramidal cells in Layers II/III of PFC. […]

[2] = system: cultured pyramidal neurons; test: Morphology of cultured GFP-expressing pyramidal neurons after acute treatment; assay type: cell-based, mouse; settings: 1 μM, 24 hrs, vs vehicle (0.01% DMSO); FIG. 11A-B; initial data
Procedure: Transgenic mice were generated to express a fluorescent protein (GFP) only in pyramidal neurons. Embryos were collected at E17, and brain homogenates were plated and cultured under suitable conditions for neuronal growth. Following 2 weeks of incubation and growth, the compound GL-II-73 (1 μM) or vehicle was applied and left for 24 hrs. Isolated cells were then used to image the entire neuron and visualize dendrites and spines on a single neuron.

[3] = Table 1, first study, Old, Treatment group, 4 samples
[4] = Table 2, washout study, Old, Treatment group, 4 samples
[5] = Table 2, Old, Washout group, 4 samples
[6] = washout study, FIG. 15B, Treatment vs Old mice, p<0.05
[7] = washout study, FIG. 15B, Washout vs Old mice, p<0.05
[8] = washout study, FIG. 16B, Old+Treatment vs Old mice, p<0.05
[9] = washout study, FIG. 16B, Washout vs Old mice, p<0.05
[10] = washout study, Old+Treatment vs Old mice, p<0.05
[11] = washout study, Washout vs Old mice, p<0.05

Structure (SMILES): C#Cc1ccc2c(c1)C(c1ccccc1F)=N[C@H](C)c1c(C(=O)N(C)C)ncn1-2 (stereo in doubt) [GL-II-73, 8-ethynyl-6-(2-fluorophenyl)-N,N,4-trimethyl-4H-benzo[f]imidazo[1,5-a][1,4]diazepine-3-carboxamide]
- Total segments ([1]; Table 1, first study, Old, Treatment group (GL-II-73 in drinking water 8 weeks), 4 samples): 666
- Overall spinal density [1, 3]: 1.01
- Total lengths (microns) [1, 3]: 66,656 microns
- total spine counts [1, 3]: 67,107
- Total segments ([1]; Table 2, washout study, Old, Treatment group (8 weeks GL-II-73), 4 samples): 1180
- Overall spinal density [1, 4]: 1.11
- Total lengths (microns) [1, 4]: 58395 microns
- total spine counts [1, 4]: 64863
- Total segments ([1]; Table 2, Old, Washout group (8 weeks GL-II-73, then 1 week wash-out), 4 samples): 1253
- Overall spinal density [1, 5]: 1.17
- Total lengths (microns) [1, 5]: 59414 microns
- total spine counts [1, 5]: 69305
- total dendritic lengths ([1]; first study, FIG. 3A, treatment group vs young mice, p>0.05): no significant difference in total dendritic length between the young mice and the treatment group
- total dendritic lengths, basal dendrite ([1]; first study, FIG. 3B, between groups, p>0.05): no difference was found in the basal dendrite between groups
- total dendritic lengths, apical dendrites ([1]; first study, FIG. 3B, treatment group vs old mice, p<0.05): higher total dendritic lengths of apical dendrites than old mice
- total spine counts ([1]; first study, FIG. 4A, treatment group vs old mice, p<0.05): higher spine counts than old mice
- total spine counts, apical dendrites ([1]; first study, FIG. 4B, treatment group vs old mice, p<0.05): higher spine count than old mice
- total spine counts, basal dendrites ([1]; first study, FIG. 4B, treatment group vs young mice, p>0.05): no difference in both basal and apical dendrites between young mice and the treatment group
- overall spine density ([1]; first study, FIG. 5A, treatment group vs old mice, p<0.05): higher density than old mice
- spine density, apical dendrites ([1]; first study, FIG. 5B, treatment group vs old mice, p>0.05): no difference between old mice and the treatment group
- spine density × branch orders, overall ([1]; first study, FIG. 6A, treatment group vs old mice, p<0.05): higher density at the 1st branch order than old mice
- spine density × branch orders, basal dendrites ([1]; first study, FIG. 6B, treatment group vs old mice, p<0.05): significantly higher density at the 1st branch order than old mice
- spine density × branch orders, apical dendrites ([1]; first study, FIG. 6C, treatment group vs old mice, p<0.05): higher density at the 1st order than old mice
- spine density × every 30 micron interval from soma, overall ([1]; first study, FIG. 7A, Sholl analysis, treatment group vs old mice, p<0.05): higher density at 180 micron interval from soma than old mice
- spine density × every 30 micron interval from soma, apical dendrites ([1]; first study, FIG. 7C, treatment group vs old mice, p<0.05): higher density at 180 micron interval from soma of the dendritic field than old mice
- frequency of intersections × 30 micron interval relative to soma, overall ([1]; first study, FIG. 8A, old vs treatment group, p<0.05): significant reductions at a distance of 120-150 micron from the soma between old and young mice as well as between old and the treatment group
- frequency of intersections × 30 micron interval, basal dendrites ([1]; first study, FIG. 8B, old vs treatment group, p>0.05): a trend of decrease was found at 120-150 micron interval from soma between Old and Young as well as old and the treatment group
- frequency of intersections × 30 micron interval, apical dendrites ([1]; first study, FIG. 8C, treatment group vs old mice, p<0.05): higher frequency at 120-150 micron interval from soma than old mice
- total spine counts ([1]; washout study, FIG. 15A, Old+Treatment vs Old mice, p<0.05): more spine counts than Old mice
- total spine counts ([1]; washout study, FIG. 15A, Washout (1 week after 8 weeks GL-II-73) vs Old mice, p<0.05): more spine counts than Old mice
- total spine counts, apical dendrites [1, 6]: higher spine counts
- total spine counts, basal dendrites [1, 6]: higher spine counts
- total spine counts, apical dendrites [1, 7]: higher spine counts
- total spine counts, basal dendrites [1, 7]: higher spine counts
- overall spine density ([1]; washout study, FIG. 16A, Old+Treatment vs Old mice, p<0.05): higher spine density than Old mice
- overall spine density ([1]; washout study, FIG. 16A, Washout vs Old mice, p<0.05): higher spine density than Old mice
- spine density, apical dendrites [1, 8]: Old mice exhibited a lower spine density than Young, Old+Treatment and Washout mice
- spine density, basal dendrite [1, 8]: Old mice showed a significant decrease of spine density in the basal dendrite as compared to Young, Old+Treatment and Washout mice
- spine density, apical dendrites [1, 9]: Old mice exhibited a lower spine density than Young, Old+Treatment and Washout mice
- spine density, basal dendrite [1, 9]: Old mice showed a significant decrease of spine density in the basal dendrite as compared to Young, Old+Treatment and Washout mice
- spine density versus branch orders, overall [1, 10]: higher spine density at the 2nd to 6th
- spine density versus branch orders, overall [1, 11]: 3rd to 6th branch orders
- spine density versus branch orders, basal dendrites [1, 10]: higher density at the 5th branch order than Old mice
- spine density versus branch orders, basal dendrites [1, 11]: higher density at the 5th branch order than Old mice
- spine density versus branch orders, apical dendrites [1, 10]: higher density at the 2nd branch order than Old mice
- spine density versus branch orders, apical dendrites [1, 11]: higher spine density at the 5th to 6th branch orders than Old mice
- spine density at 30 micron intervals from the soma, overall [1, 10]: higher spine density at 150 um to 210 um from soma
- spine density at 30 micron intervals from the soma, overall [1, 11]: higher spine density at 90 um to 210 um from soma
- spine density at 30 micron intervals from the soma, basal dendrites [1, 10]: higher density between 150 um and 180 um from soma
- spine density at 30 micron intervals from the soma, basal dendrites [1, 11]: higher density between 120 um and 180 um from the soma than Old mice
- spine density at 30 micron intervals from the soma, apical dendrites [1, 10]: higher density at 180 um to 210 um from soma
- spine density at 30 micron intervals from the soma, apical dendrites [1, 11]: higher spine density at 120 um to 210 um from soma
- dendritic length [2]: longer dendrites
- spine density (spines) [2]: more spines
